In ChEMBL document CHEMBL1201862, “PubChem BioAssay data set” (2004):
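Assay format: 96-well plates, 48-hour exposure. Abbreviation: GI50, concentration required for 50% inhibition of growth.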 The source made the active and inactive calls. Rule as the data show it: active = GI50 up to about 1.1 µM and inactive = higher.

What was measured:
Test in all cases: growth of human tumour cells (NCI), 48 h
HCC 2998 = test system: HCC 2998
OVCAR-5 = test system: OVCAR-5
DU-145 = test system: DU-145
NCI-H226 = test system: NCI-H226
CCRF-CEM = test system: CCRF-CEM
NCI-H460 = test system: NCI-H460
BT-549 = test system: BT-549
UACC-62 = test system: UACC-62
MOLT-4 = test system: MOLT-4
NCI-H522 = test system: NCI-H522
KM12 = test system: KM12
ACHN = test system: ACHN
SF-295 = test system: SF-295
A549 = test system: A549
SNB-19 = test system: SNB-19
HOP-62 = test system: HOP-62
MCF7 = test system: MCF7
NCI-H23 = test system: NCI-H23
EKVX = test system: EKVX
SW-620 = test system: SW-620

Measured: GI50

O=C1Oc2ccccc2N/C1=C/C(=O)c1ccc(Cl)cc1
inactive: HCC 2998 63.5 µM | OVCAR-5 > 100 µM | DU-145 > 100 µM | NCI-H226 > 100 µM | CCRF-CEM 7.96 µM | NCI-H460 > 100 µM | BT-549 > 100 µM | UACC-62 32.4 µM | MOLT-4 > 100 µM | NCI-H522 38.1 µM | KM12 > 100 µM | ACHN > 100 µM | SF-295 51.4 µM | A549 60.3 µM | SNB-19 > 100 µM | HOP-62 > 100 µM | MCF7 41.7 µM | NCI-H23 > 100 µM | EKVX > 100 µM

C=CC[C@@]1(C(=O)OC)[C@H](Sc2ccccc2)C1(C)C
inactive: HCC 2998 27 µM | OVCAR-5 80.9 µM | DU-145 67.9 µM | NCI-H226 35.5 µM | CCRF-CEM 28.8 µM | NCI-H460 66.5 µM | BT-549 46 µM | UACC-62 45.5 µM | MOLT-4 14.4 µM | NCI-H522 30.5 µM | KM12 35.1 µM | ACHN > 100 µM | SF-295 36.1 µM | A549 32.5 µM | SNB-19 > 100 µM | HOP-62 > 100 µM | MCF7 25.9 µM | NCI-H23 23.2 µM | EKVX 33.3 µM | SW-620 61.4 µM

CSc1ccc(Nc2cc(=O)[nH]c(=O)[nH]2)cc1
inactive: HCC 2998 > 100 µM | OVCAR-5 > 100 µM | DU-145 > 100 µM | NCI-H226 > 100 µM | CCRF-CEM > 100 µM | NCI-H460 > 100 µM | BT-549 > 100 µM | UACC-62 > 100 µM | MOLT-4 > 100 µM | NCI-H522 > 100 µM | ACHN > 100 µM | SF-295 > 100 µM | A549 > 100 µM | SNB-19 > 100 µM | MCF7 > 100 µM | NCI-H23 > 100 µM | SW-620 > 100 µM

Cn1c(-c2ccccc2)cc(-c2cccs2)c1-c1ccsc1
inactive: HCC 2998 > 100 µM | OVCAR-5 > 100 µM | DU-145 > 100 µM | NCI-H226 > 100 µM | CCRF-CEM > 100 µM | NCI-H460 > 100 µM | BT-549 > 100 µM | UACC-62 > 100 µM | MOLT-4 > 100 µM | KM12 80.5 µM | ACHN > 100 µM | SF-295 > 100 µM | A549 > 100 µM | SNB-19 > 100 µM | HOP-62 > 100 µM | MCF7 47.4 µM | NCI-H23 > 100 µM | EKVX > 100 µM | SW-620 > 100 µM

COC(=O)C1=C(O)C(C(=O)OC)[C@@]2(O)[C@@H](C(=O)OC)[C@H](C)[C@@H](C)[C@@H]1[C@@H]2C(=O)OC (stereo partly drawn)
inactive: HCC 2998 37.8 µM | OVCAR-5 > 100 µM | DU-145 > 100 µM | NCI-H226 55.8 µM | CCRF-CEM 60.5 µM | NCI-H460 44.9 µM | BT-549 37.5 µM | UACC-62 55.5 µM | MOLT-4 > 100 µM | NCI-H522 26.9 µM | KM12 34.8 µM | ACHN > 100 µM | SNB-19 > 100 µM | HOP-62 89.5 µM | MCF7 38.1 µM | NCI-H23 75.2 µM | EKVX 52.8 µM

O=C1CSC2(CC(/C=C/c3ccccc3)=NN2c2cccc(S(=O)(=O)O)c2)N1c1nc2ccccc2s1 (stereo not drawn)
inactive: HCC 2998 59.4 µM | OVCAR-5 27.8 µM | DU-145 25.4 µM | NCI-H226 37.5 µM | CCRF-CEM 19.1 µM | NCI-H460 26.3 µM | BT-549 24.8 µM | UACC-62 18.9 µM | MOLT-4 24.9 µM | NCI-H522 19.5 µM | KM12 19.4 µM | ACHN 27 µM | A549 32.8 µM | SNB-19 21.5 µM | MCF7 17.1 µM | NCI-H23 22 µM | EKVX 60.4 µM | SW-620 29.6 µM

N#CC12C(=O)N3C(=NC(c4ccco4)NC3c3ccco3)C1(C#N)C(c1ccco1)NC1=C2CCCC1 (stereo not drawn)
inactive: HCC 2998 > 100 µM | OVCAR-5 > 100 µM | DU-145 > 100 µM | NCI-H226 > 100 µM | NCI-H460 > 100 µM | BT-549 > 100 µM | UACC-62 > 100 µM | MOLT-4 > 100 µM | NCI-H522 73.1 µM | KM12 > 100 µM | ACHN > 100 µM | SF-295 > 100 µM | A549 > 100 µM | SNB-19 > 100 µM | HOP-62 > 100 µM | MCF7 > 100 µM | NCI-H23 > 100 µM | EKVX > 100 µM | SW-620 > 100 µM

O=C1c2ccccc2-c2nc(/C=C/c3ccccc3)cc3c2c1nc1ccccc13
inactive: HCC 2998 20.4 µM | OVCAR-5 > 100 µM | DU-145 68.4 µM | NCI-H226 69.2 µM | CCRF-CEM 24.4 µM | BT-549 36.8 µM | UACC-62 9.82 µM | MOLT-4 23.6 µM | NCI-H522 10.3 µM | KM12 18.5 µM | ACHN 26.4 µM | SF-295 23 µM | A549 30.6 µM | SNB-19 80.5 µM | HOP-62 16.3 µM | MCF7 19.1 µM | NCI-H23 12.1 µM | EKVX 53.8 µM | SW-620 20 µM

NC(CCCCNc1ccn(C2OC(CO)C(O)C2O)c(=O)n1)C(=O)O (stereo not drawn)
inactive: HCC 2998 76.6 µM | OVCAR-5 > 100 µM | DU-145 > 100 µM | NCI-H226 > 100 µM | CCRF-CEM 35 µM | NCI-H460 > 100 µM | BT-549 > 100 µM | UACC-62 > 100 µM | MOLT-4 73.3 µM | NCI-H522 > 100 µM | KM12 > 100 µM | ACHN > 100 µM | SF-295 30.6 µM | A549 50.5 µM | SNB-19 > 100 µM | MCF7 > 100 µM | EKVX > 100 µM | SW-620 > 100 µM

Cc1csc(-c2cn(C)c3c2C(=O)C(=N)C=C3O)n1
inactive: HCC 2998 5 µM | OVCAR-5 42.4 µM | DU-145 4.12 µM | NCI-H226 8.39 µM | CCRF-CEM 5.31 µM | NCI-H460 3.97 µM | BT-549 44.9 µM | UACC-62 7.59 µM | MOLT-4 3.18 µM | NCI-H522 13.6 µM | KM12 11.2 µM | ACHN 3.71 µM | SF-295 2.37 µM | A549 2.65 µM | SNB-19 7.38 µM | HOP-62 6.89 µM | MCF7 3.27 µM | NCI-H23 2.79 µM | EKVX 3.37 µM | SW-620 9.73 µM

COc1cc(O)c2c(=O)c(O)c(-c3ccc(O)c(OC)c3)oc2c1 [RHAMNAZIN]
inactive: HCC 2998 7.6 µM | OVCAR-5 > 100 µM | DU-145 > 100 µM | NCI-H226 > 26.5 µM | CCRF-CEM 2.92 µM | NCI-H460 2.64 µM | BT-549 2 µM | MOLT-4 4.41 µM | NCI-H522 2.3 µM | KM12 3.47 µM | SF-295 > 100 µM | A549 > 22.9 µM | SNB-19 3.83 µM | MCF7 2.72 µM | NCI-H23 > 26.5 µM | EKVX > 22.3 µM | SW-620 18.5 µM
